Results from patent US10857180B2, “Pharmaceutical composition for improving health, cure abnormalities and degenerative disease, achieve anti-aging effect of therapy and therapeutic effect on mammals and method thereof” (priority 2014, dated 2020).
Values after ≈ are worked out from the molar mass of the structure shown. Where two headings read alike, the source gives them in different places. Values belong to the compound of their own block, whether it stands above or below them.

Legend:
[1] = tested on: renal cell carcinoma (PA) cells; test: Viability of PA tumor cells (trypan blue, crystal violet; live-dead); format: cell-based, rat; conditions: for IC50: Rattus norvegicus; for dose for 50% live, 50% dead: natural isotope distribution
Excerpt: To make the analysis, the cell suspension, after it was exposed to the action of materials, in a volume of 20 mcl was mixed with 20 mcl of trypan blue solution and resuspended. The obtained solution was placed in a hemocytometer chamber for visual analysis and quantitative estimation of the cells. To make the quantitative estimation of the cells, they were separated from the substrate using Versene solution and counted by staining cells with trypan. A change in the color of a cell was indicative of the violation of intactness of the cell membrane, and the more pronounced was the coloration, the less viable the cell was. […] They are easily distinguishable from dark damaged cells and easily identified with ordinary light microscope.
Alluding to the above, staining the Cells with Crystal Violet and their Quantitative Analysis will be discussed. Utilization of this method of assessment in the experiment makes it possible to quantify cells classified according to the living-dead criterion. The method is based on statistical evaluation of cells able to adhere to the substrate (to the plastic plate), cells capable of further proliferation. The criterion of the evaluation is the degree of optical permeability of a well with the cell sediment for a luminous flux of a certain wavelength. Removal of the culture medium from the wells is also accompanied by removal of non-adhering and unstained cells from the substrate, and adhesion and staining of the residue left on the substrate provides a quantitative characteristic of the number of cells which are capable of further division and multiplication.
Alluding to the above, viable tumor cells capable of further proliferation were fixed to the plastic surface and stained blue (after they were exposed to the action of components with natural distribution of isotopes) using the dye powder dissolved in 70% methanol solution. After 10 minutes the dye was removed from the wells with a micropipette and the cells were thoroughly rinsed three times with clean running water. The cell sediment fixed by the dye was dissolved with ethanol followed by determination of its concentration (which is indicative of the number of viable cells) and fixed via multi-well spectrophotometer with an excitation wave 540 nm in length.
Analysis of the effect of all components on the renal cell carcinoma (PA) was conducted to determine the relationship between the amount of the preparation (concentration characteristics of the component) and the quantitative characteristics of the cells. Assessment of the effect of the components was carried out on 2 concentration models with 30 and 300 thousand original tumor cells. After the cells were cultured, cell suspensions were prepared in the plates with the culture medium and an effect of the preparations (in various concentrations) on the tumor cells was assessed. The experiment was started with the concentration of 10 mg of the active substance per 1 ml of the solvent (saline with 5% glucose).
After the action of components with natural isotope distribution on PA tumor cells (in all 9 concentration dilutions of the preparations), they were stained with trypan blue. Staining cells (after the effect of the components) in blue is indicative of the respiratory impairment of the cells, which allows of classifying them as non-viable tumor units. The part of the cells remained uncolored is characterized as viable with the ability for further proliferation. […] The assessment was performed on 14 plates with 300 thousand cells in each well by counting the number of viable cells in the Goryaev chamber. Quantitative analysis of the cells was performed visually every 10 hours of the experiment.

[2] = tested on: normal rat kidney cells (NRK cell line); test: Effect on normal rat kidney cells versus Doxorubicin; conditions: for live cells: 16 mcg/ml
Excerpt: An immortalized cell line is a stable, capable of unlimited proliferation cell line that consists of cells with […] in culture.

[3] = tested on: stem cells derived from rat fibroblasts (RF); format: cell-based
[4] = tested on: normal rat kidney cells (NRK cell line); test: Scratch assay, NRK cells; format: cell-based; conditions: Doxorubicin 15 ng/ml; control 30 hours
Procedure: (§2) The cells of A-549, A-431, NRK, HaCaT, MM-4, normal fibroblasts (derived from the Bank of Cell Lines from human and animal tissues, R. E. Kavetsky Institute of Experimental Pathology, Oncology and Radiobiology, National Academy of Sciences of Ukraine) were cultured in complete culture medium RPMI 1640/DMEM (PAA, Austria) (depending on the cell type) supplemented with 10% fetal calf serum (PAA, Austria) and incubated in 5% CO2 humidified atmosphere at 37° C. The culture medium was replaced in 2 to 3 days and the cells were passaged in 4 to 5 days.
(§3) Analysis of the influence of the components under study on the cell migration rate was performed using the scratch assay method. Cells (5×10^4/well) were seeded into the wells of a 12-well plate in 2 repeats in RPMI-1640/DMEM culture medium supplemented with 10% PBS, 40 mcg/ml of gentamicin and incubated in 5% CO2 humidified atmosphere at 37° C. for 24 hours.
(§4) The plate was incubated in a CO2 incubator for additional 48 hours. After the cells formed a dense monolayer it was damaged (by making a “scratch”) and the growth medium was replaced to remove cell debris and smooth the edges of the “scratch.” The rate of cell migration was analyzed using an inverted microscope and by photographing cells in the area of injury. The migration activity of cells was fixed at several time points (depending on the cell line analyzed). The microphotomicrographs were analyzed and the cell incubation time needed to restore the monolayer was determined for all experimental groups.

[5] = tested on: healthy human skin cells (HaCaT cell line); test: Scratch assay, HaCaT cells; format: cell-based; conditions: Doxorubicin 15 ng/ml and 5 ng/ml
Procedure: as §2
(§5) Analysis of the influence of the components under study on the cell migration rate was performed using the scratch assay method. […]
(§6) The plate was incubated in a CO2 incubator for additional 48 hours. After the cells formed a dense monolayer it was damaged (by making a “scratch”) and the growth medium was replaced to remove cell debris and smooth the edges of the “scratch.” The rate of cell migration was analyzed using an inverted microscope and by photographing cells in the area of injury. The migration activity of cells was fixed at several time points (depending on the cell line analyzed). The microphotomicrographs were analyzed and the cell incubation time needed to restore the monolayer was determined for all experimental groups. […]

[6] = tested on: human melanoma tumor cells (MM-4 cell line); test: Scratch assay, MM-4 cells; format: cell-based; conditions: Doxorubicin at 2 concentrations (0.1 and 0.01 mcg/ml)
Procedure: as §2, §5, §6

A-549 cell line = test: Scratch assay, A-549 cells
Procedure: as §2, §3, §4

[7] = tested on: human epidermoid carcinoma cells (A-431 cell line); test: Scratch assay, A-431 cells
Procedure: as §2, §5, §6

[8] = tested on: renal cell carcinoma (PA) cells; test: Immunocytochemistry (H-Score) of PA cells; format: cell-based, rat
Procedure: When making the immunocytochemistry (ICC) assay, cells on microscope glasses (cytospin preparations) were fixed in the solution (methanol+acetone 1:1) for 2 hours at t 20° C. and incubated with 1% solution of bovine serum albumin (BSA) for 20 minutes. Then the monoclonal antibodies—CD44 (Diagnostic BioSystems), E-cadherin (ThermoScientific), N-cadherin (NeoMarker, BioLegend)—were applied for 60 minutes, after which the Poly Vue imaging system conjugated with peroxidase was used and the enzyme activity was detected using diaminobenzidine (ThermoScientific) as a substrate.
(§1) After the immunocytochemical reaction the preparations were washed with water and counterstained with hematoxylin-eosin (for 15-30 seconds). The results were analyzed by counting cells with expression (brown colored cells), using a light microscope and were assessed using the classical H-Score method: S=1×A+2×B+3×C, where S is the H-Score index giving a range of 0 (protein is not detected) to 300 (high-level expression in 100% of the cells); A is the percentage of weakly stained cells, B is the percentage of moderately stained cells and C is the percentage of strongly stained cells.

[9] = tested on: normal rat kidney cells (NRK line); test: Immunocytochemistry of NRK cells; format: cell-based
Procedure: When making the immunocytochemistry (ICC) assay, cells on microscope glasses (cytospin preparations) were fixed in the solution (methanol+acetone 1:1) for 2 hours at t 20° C. and incubated with 1% solution of bovine serum albumin (BSA) for 20 minutes. Then the monoclonal antibodies-CD44 (Diagnostic BioSystems), E-cadherin (ThermoScientific), N-cadherin (NeoMarker, BioLegend), SLUG (GeneTex)—were applied for the time period specified by the manufacturer (30 to 60 minutes), after which the Poly Vue imaging system conjugated with peroxidase was used and the enzyme activity was detected using diaminobenzidine (ThermoScientific) as a substrate. After the immunocytochemical reaction the preparations were washed with water and counterstained with hematoxylin-eosin (for 15 to 30 seconds).
as §1, with “The” for “After the immunocytochemical reaction the preparations were washed with water and counterstained with hematoxylin-eosin (for 15-30 seconds). The”, “cells)” for “cells),”, “microscope,” for “microscope”, “staining” for “stained”

[10] = Zn sulfate 80 mcg/ml, trypan blue

- live cells ([2]; within 30 min): live cells are virtually absent
- live cells ([2]; within 48 hours): live cells are absent
SMILES: COc1cccc2c1C(=O)c1c(O)c3c(c(O)c1C2=O)C[C@@](O)(C(=O)CO)C[C@@H]3O[C@H]1C[C@H](N)[C@H](O)[C@H](C)O1 [Doxorubicin]
- dead cells ([1]; Doxorubicin 0.64 mcg/ml): 39%
- live cells ([1]; Doxorubicin 0.64 mcg/ml): 61%
- dead cells ([1]; Doxorubicin 16 mcg/ml): 95%
- live cells ([1]; Doxorubicin 16 mcg/ml): 5%
- IC50 ([1]; crystal violet and trypan blue, read-out: concentration that kills 50% of the tumor cells): 3.2 µg/mL (≈ 5.89 µM)
- IC50 ([1]; read-out: dose that killed 50% of tumor cells): 3.2 µg/mL (≈ 5.89 µM)
- effect on normal NRK cells ([2]; 3 to 0.01 mcg/ml): causing death of normal NRK cells
- effect on normal NRK cells ([2]; 400 to 16 mcg/ml, 48 hours): complete death
- time of restoration of the cell interval ([3]; Doxorubicin 15 ng/ml or 5 ng/ml): > 72 h
- death of cells ([3]; Doxorubicin 15 ng/ml, within 96 hours after administration): 95%
- time of restoration of the damaged monolayer [4]: 72 h
- cell migration rate [5]: inhibition of the cell migration rate
- period of closing of the gap [6]: 48 h
- time of restoration of the cell monolayer (A-549 cell line; Doxorubicin 0.02 mcg/ml): 60 h
- time of restoration of the cell monolayer (A-549 cell line; Doxorubicin 0.2 mcg/ml): < 24 h
- time of full restoration of the cell monolayer (A-549 cell line; Doxorubicin (2 mcg/ml per FIG. 113-116)): 24 h
- time for the cell monolayer repair ([7]; Doxorubicin 0.02 mg/ml): 48 h
- time to close up the cellular gap ([7]; Doxorubicin 0.1 mcg/ml, control 48 hours): 45 h

SMILES: [Cl-].[K+] [K]
- dose for 50% live, 50% dead [1]: about 2 mg

SMILES: O=S(=O)([O-])[O-].[Mg+2] [Mg]
- dose for 50% kill, times as high as Doxorubicin EBEWE [1]: 1600 times
- dose for 50% live, 50% dead [1]: about 5 mg

SMILES: O=S(=O)([O-])[O-].[Zn+2] [Zn]
- dose for 50% kill, times as high as Doxorubicin EBEWE [1]: 100 times
- dead tumor cells ([1]; Zn sulfate 16 mcg/ml): 7%
- live tumor cells ([1]; Zn sulfate 16 mcg/ml): 93%
- dead tumor cells [1, 10]: 75%
- live tumor cells [1, 10]: 25%

SMILES: O=S(=O)([O-])[O-].[64Zn+2] [^64Zn—Z2]
- CD44 marker positive cells, H-Score scale ([8]; 3.2 mcg/ml): 118 units
- N-cadherin level ([8]; ^64Zn—Z2 3.2 and 0.128 mcg/ml): does not change
- number of E-cadherin-positive cells ([8]; ^64Zn—Z2 3.2 and 0.128 mcg/ml): grows
- E-cadherin-positive cells, H-Score scale ([8]; dose D1 0.128 mcg/ml): 300
- phenotype of normal cells [9]: has not changed
